Here are results for 1 molecule from paper PMC4215638, “J-147 a Novel Hydrazide Lead Compound to Treat Neurodegeneration: CeeTox™ Safety and Genotoxicity Analysis” (Journal of neurology & neurophysiology, 2013).

SMILES strings stand for the structures.

This data set can be described thus: Microsomal metabolic stability. The following applies: 30 minutes at 37°C, rat microsomes. In kind it is in vitro ADME. How it is done:
Metabolic stability was conducted using pooled microsomes from non-induced male Sprague-Dawley rats. J-147 was incubated for 30 minutes at 37°C at concentrations of 1 μM. Subsequent HPLC analysis using a Waters Alliance 2795 in combination with a Waters Quattro Premier mass spectrometer measured disappearance of the parent molecule. The compounds were run on a Waters X-BridgeC18 (186003021) 50 × 2.1 mm column with 3.5 micron particle packing at a flow rate of 1 ml/min and with the temperature maintained at 50°C. Solvent A was water with 0.1% formic acid. Solvent B was acetonitrile with 0.07% formic acid. The data for 3 replicates are expressed as percent of parent remaining.

As usually defined, the fraction remaining is what is left of the initial amount, in per cent.

For `Cc1ncc2n1-c1ccc(Cl)cc1C(c1ccccc1F)=NC2` [Midazolam, reference compound], the “Metabolism Ranking” value (1 μM) is listed as “High (<45=high)”. Moreover, the fraction remaining at 0.5 h, 1 μM (male, Sprague-Dawley, pooled microsomes from non-induced rats, percent of parent remaining) fell in the range of 0 to 3%.
